Measured values taken from US9187472B2 (AbbVie Inc., priority 2012, dated 2015).

How the values were obtained:
[1] = molecular target: NAMPT (human, recombinant, C-terminally His-tagged) (Homo sapiens, UniProt P43490); experiment: Time-Resolved Fluorescence Resonance Energy Transfer (TR-FRET) Binding Assay of NAMPT; settings: without substrates; 6.8 nM NAMPT, 200 nM probe, 3 hours equilibration
In short: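 Read-out is the time-resolved FRET ratio Em520/Em495 (excitation 337 nm) between a terbium anti-His antibody (1 nM) on the enzyme and an Oregon Green 488-labelled nicotinamide-competitive inhibitor probe (200 nM). Enzyme was 6.8 nM, DMSO 2%, pH 7.5 HEPES buffer; 3 h room-temperature equilibration preceded reading.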

NAMPT = NAMPT (Homo sapiens, UniProt P43490); experiment: TR-FRET Binding Assay of NAMPT with PRPP; settings: with 200 μM PRPP and 2.5 mM ATP; 2 nM NAMPT, 2 nM probe, 16 hours equilibration
In short: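 NAMPT 2 nM + probe 2 nM + Tb-anti-His Ab 1 nM; PRPP 200 μM, ATP 2.5 mM, DMSO 2%; 16 h equilibration before TR-FRET read.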

PC3 cells = experiment: NAMPT Cell Proliferation Assay; type: cell-based; settings: Homo sapiens, PC-3, 120 h, 5 days incubation, cell viability by Cell Titer Glo
In short: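 Cell Titer Glo viability after 5-day exposure (37° C, 5% CO2); PC3, 500 cells/well, RPMI + 10% heat-inactivated FBS, overnight attachment before dosing. Dose range 10 μM to 1×10^−5 μM, 10-fold steps. IC50 = sigmoidal fit of % inhibition.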

[2] = tested on: collagen induced arthritis; settings: Busso et al. 2008; cited from earlier work
activated T cells = settings: Busso et al. 2008; cited from earlier work
[3] = tested on: experimental autoimmune encephalomyelitis (EAE); settings: model of T-cell mediated autoimmune disorders, Bruzzone et al. 2009; cited from earlier work

Chain of NAMPT (human, recombinant, C-terminally His-tagged) (P43490 whole entry): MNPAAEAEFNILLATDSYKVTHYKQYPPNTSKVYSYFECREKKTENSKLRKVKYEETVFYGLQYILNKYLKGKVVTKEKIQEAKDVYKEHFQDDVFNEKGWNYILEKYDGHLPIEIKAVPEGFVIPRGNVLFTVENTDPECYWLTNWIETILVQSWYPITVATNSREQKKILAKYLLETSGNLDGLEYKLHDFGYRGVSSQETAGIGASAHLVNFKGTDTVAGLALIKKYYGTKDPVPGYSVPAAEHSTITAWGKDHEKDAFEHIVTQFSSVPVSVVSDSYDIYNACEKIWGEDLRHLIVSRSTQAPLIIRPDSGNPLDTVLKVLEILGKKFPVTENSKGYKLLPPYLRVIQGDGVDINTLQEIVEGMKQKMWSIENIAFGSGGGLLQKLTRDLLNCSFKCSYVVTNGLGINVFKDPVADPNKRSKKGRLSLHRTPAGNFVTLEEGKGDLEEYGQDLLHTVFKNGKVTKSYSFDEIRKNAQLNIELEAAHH
Chain of NAMPT (P43490 whole entry): as above

Row | Structure (SMILES) | IC50 [1] | IC50 (NAMPT) | IC50 (PC3 cells) | efficacy in animal models of arthritis [2] | apoptosis of activated T cells (activated T cells) | proliferation of activated T cells (activated T cells) | manifestations of experimental autoimmune encephalomyelitis [3]
1 | CC(C)CC(=O)N1CCC(c2ccc(C(=O)NCc3cn4ccnc4cn3)cc2)CC1 [Example 816, N-(imidazo[1,2-a]pyrazin-6-ylmethyl)-4-[1-(3-methylbutanoyl)piperidin-4-yl]benzamide] | 46.1 nM | 1.58 nM | 4.82 nM |  |  |  | 
2 | CC(C)S(=O)(=O)N1CCC(c2ccc(C(=O)NCc3cn4ccnc4cn3)cc2)CC1 [Example 817, N-(imidazo[1,2-a]pyrazin-6-ylmethyl)-4-[1-(propan-2-ylsulfonyl)piperidin-4-yl]benzamide] | 65.8 nM | 1.6 nM | 9.27 nM |  |  |  | 
3 | CC(C)Cn1nccc1-c1ccc(C(=O)NCc2ccn3ccnc3c2)o1 [Example 818, N-(imidazo[1,2-a]pyridin-7-ylmethyl)-5-[1-(2-methylpropyl)-1H-pyrazol-5-yl]furan-2-carboxamide] | 1520 nM | 0.644 nM | 716 nM |  |  |  | 
4 | CC(C)Cn1cc(-c2ccc(C(=O)NCc3cn4ccnc4cn3)o2)cn1 [Example 819, N-(imidazo[1,2-a]pyrazin-6-ylmethyl)-5-[1-(2-methylpropyl)-1H-pyrazol-4-yl]furan-2-carboxamide] | 19.9 nM | 0.624 nM | 13 nM |  |  |  | 
5 | CC(C)Cn1cc(-c2ccc(C(=O)NCc3ccc4ncnn4c3)o2)cn1 [Example 820, 5-[1-(2-methylpropyl)-1H-pyrazol-4-yl]-N-([1,2,4]triazolo[1,5-a]pyridin-6-ylmethyl)furan-2-carboxamide] | 499 nM | 9.28 nM | 802 nM |  |  |  | 
6 | CC(C)CCn1nccc1-c1ccc(C(=O)NCc2ccn3ccnc3c2)o1 [Example 821, N-(imidazo[1,2-a]pyridin-7-ylmethyl)-5-[1-(3-methylbutyl)-1H-pyrazol-5-yl]furan-2-carboxamide] | 663 nM | 0.284 nM | 192 nM |  |  |  | 
7 | CC1(Cn2cc(-c3ccc(C(=O)NCc4ccc5ncnn5c4)o3)cn2)CCOCC1 [Example 822, 5-{1-[(4-methyltetrahydro-2H-pyran-4-yl)methyl]-1H-pyrazol-4-yl}-N-([1,2,4]triazolo[1,5-a]pyridin-6-ylmethyl)furan-2-carboxamide] | 104 nM | 3.46 nM | 71.1 nM |  |  |  | 
8 | COC[C@H]1CCCN1C(=O)c1ccc(C(=O)NCc2ccn3ccnc3c2)s1 [Example 823, N-(imidazo[1,2-a]pyridin-7-ylmethyl)-5-{[(2R)-2-(methoxymethyl)pyrrolidin-1-yl]carbonyl}thiophene-2-carboxamide] | 189 nM | 0.356 nM | 4.62 nM |  |  |  | 
9 | CC(C)CC1CCCN1C(=O)c1ccc(C(=O)NCc2ccn3ccnc3c2)s1 (stereo not shown) [Example 824, N-(imidazo[1,2-a]pyridin-7-ylmethyl)-5-{[2-(2-methylpropyl)pyrrolidin-1-yl]carbonyl}thiophene-2-carboxamide] | 118 nM | 0.566 nM | 12.4 nM |  |  |  | 
10 | CC(C)(C)Cn1cc(-c2ccc(C(=O)NCc3ccn4ccnc4c3)o2)cn1 [Example 825, 5-[1-(2,2-dimethylpropyl)-1H-pyrazol-4-yl]-N-(imidazo[1,2-a]pyridin-7-ylmethyl)furan-2-carboxamide] | 26.1 nM | 0.538 nM | 1.06 nM |  |  |  | 
11 | O=C(NCc1cn2ccnc2cn1)c1ccc(C2CCN(C(=O)c3ccccc3F)CC2)cc1 [Example 826, 4-[1-(2-fluorobenzoyl)piperidin-4-yl]-N-(imidazo[1,2-a]pyrazin-6-ylmethyl)benzamide] | 7.79 nM | 0.897 nM | 6.79 nM |  |  |  | 
12 | O=C(/C=C/c1cccnc1)NCCCCC1CCN(C(=O)c2ccccc2)CC1 [FK866] |  |  |  | efficacious | induce apoptosis | selectively block proliferation | ameliorated the manifestations
